Reference: patent US20060251703A1, “Composition comprising an edible acid or its acidic salt and the use thereof” (priority 2003, published 2006)
Structures can show the parent of a compound that is named as a salt.

Assays:
[1] = pH of saliva after ingesting citric acid; type: in vivo, human; details: 700 mg citric acid ingested
Procedure: Saliva is a kind of humors and, normally, has the pH of around 6.8. For the purpose of reference, to test the pH of the saliva of a person was carried out who had brushed before testing and ingesting 700 mg of citric acid. […]

xanthine oxidase = assay: Inhibition of xanthine oxidase; type: biochemical; details: xanthine oxidase 0.01 u/ml, xanthine 5×10^−5M, pH=7.4, UV 295 nm; read-out: IC50 (concentration for depression of 50% activity of oxidase)
Sequence of xanthine oxidase (P47989 whole entry, species assumed): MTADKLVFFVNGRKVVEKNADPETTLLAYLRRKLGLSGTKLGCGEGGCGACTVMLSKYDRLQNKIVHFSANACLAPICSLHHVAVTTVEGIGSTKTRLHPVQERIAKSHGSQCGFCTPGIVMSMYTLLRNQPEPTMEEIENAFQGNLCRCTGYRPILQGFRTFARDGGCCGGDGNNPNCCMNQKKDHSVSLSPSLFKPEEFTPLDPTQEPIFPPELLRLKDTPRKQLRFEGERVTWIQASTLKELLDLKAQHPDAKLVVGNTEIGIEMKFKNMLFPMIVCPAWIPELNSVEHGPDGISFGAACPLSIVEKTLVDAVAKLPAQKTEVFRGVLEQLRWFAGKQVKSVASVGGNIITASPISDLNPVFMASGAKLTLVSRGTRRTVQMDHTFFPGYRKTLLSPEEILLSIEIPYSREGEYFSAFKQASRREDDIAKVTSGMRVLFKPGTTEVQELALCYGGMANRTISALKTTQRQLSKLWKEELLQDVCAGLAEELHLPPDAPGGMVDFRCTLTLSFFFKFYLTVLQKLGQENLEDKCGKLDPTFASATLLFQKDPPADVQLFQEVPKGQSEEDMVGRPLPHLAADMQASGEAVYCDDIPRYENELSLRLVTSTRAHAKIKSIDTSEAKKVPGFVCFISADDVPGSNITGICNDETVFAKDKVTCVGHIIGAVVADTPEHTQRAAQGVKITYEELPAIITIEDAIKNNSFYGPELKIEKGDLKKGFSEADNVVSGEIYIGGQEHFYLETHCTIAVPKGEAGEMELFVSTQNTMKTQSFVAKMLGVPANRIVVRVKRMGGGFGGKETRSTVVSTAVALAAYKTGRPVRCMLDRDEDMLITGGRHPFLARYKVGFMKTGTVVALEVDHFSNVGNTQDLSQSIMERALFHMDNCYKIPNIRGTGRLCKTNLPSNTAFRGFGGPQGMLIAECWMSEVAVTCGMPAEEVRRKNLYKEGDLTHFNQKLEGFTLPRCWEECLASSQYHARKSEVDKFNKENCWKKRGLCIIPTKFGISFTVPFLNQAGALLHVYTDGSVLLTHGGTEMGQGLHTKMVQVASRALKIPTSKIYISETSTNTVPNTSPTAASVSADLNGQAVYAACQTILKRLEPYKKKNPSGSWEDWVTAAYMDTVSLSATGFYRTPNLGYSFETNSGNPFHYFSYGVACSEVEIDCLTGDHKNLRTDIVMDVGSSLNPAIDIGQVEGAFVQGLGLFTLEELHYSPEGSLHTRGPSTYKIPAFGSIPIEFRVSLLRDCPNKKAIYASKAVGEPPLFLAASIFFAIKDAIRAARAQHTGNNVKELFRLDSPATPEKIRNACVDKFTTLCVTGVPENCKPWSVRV
Procedure: The production process of peroxide free radical can be tested by Xanthine oxidase substrate in vito (Fridowich, I., J. Biol. Chem., 215, 4053˜4057, 1970). […] The test of inhibiting xanthine oxidase is carried out by the method of H. M. Kalckar (J. Biol. Chem., 167, 429˜443, 1947). The basic principle is xanthine being acted by xanthine oxidase to form uric acid that is quantitative analyzed by photometric method. By the amount of determined uric acid, is calculated the degree of inhibiting effect for the activity of xanthine oxidase.
The testing process is, adding a final concentration of 0.01 u/ml of xanthine oxidase in 1 cm cell of photometric apparatus, and adding 0.05M (pH=7.4) of phosphoric acid buffer or inhabitant The reaction time is counted from the point at adding xanthene's to a final concentration reaching 5×10^−5M. For reducing the error arose by absorption of liquid in photometric analysis, the compound of xanthine oxidase, xanthine and drug are boiled for the reference. UV selected at 295 nm, data are recorded at an interval of 30 seconds for 2 minutes. The unit of activity change of xanthine oxidase is 0.001M/min. Calculate the inhibiting rate for each addition amount of drug. To use drug concentration (M) as a function of inhibiting rate (%), and to trace the data on a log scale paper, the 50% depression rate of the oxidase (IC50) could be determined by regression line method.

[2] = test system: oxazolone-coated mouse ear; assay: Anti-delayed type allergy reaction (oxazolone ear inflammation); type: in vivo; details: 1 mg/ear coated, ears weighed after 24 hr; for inhibition in vivo at 1 mg/ear: Mus musculus, topical, read-out: Depression rate (%)
Procedure: The weights of testing mice are ranging from 20 g to 30 g. They are coated with 0.1 ml of oxazolone alcohol solution (0.5 w/v %) on the hair cleaned part of abdomen. After five days, each of the listed drugs is dissolved in oxazolone acetone solution (0.5 w/v %), and 10 μl each of the solutions is token by micro pipette to coat on both sides of the right ear. After 24 hr, the mouse is killed by ether and punched a circle area of a diameter of 5.5 mm on both right and left ears in corresponding part by a puncher machine (portions of drug coated and the blank). The punched portions are weighed and the inflammation rates calculated. The control group are coated only with the oxazolone acetone solution (0.5 w/v %). The inflammation depressing rates of each drug are calculated by following equation: Inflammation depressing rate(%)=[(weight of drug coated right ear)−(weight of non-drug-coated left ear)]×100%/(weight of non-drug-coated left ear)

[3] = test system: mouse's leaching cell solution (abdominal cavity cells); assay: Drug depressing effect on histamine leaching when treated with 48/80 compound; type: cell-based; details: testing drug 100(mg/ml); for inhibition at 100000 µg/mL: Mus musculus, read-out: Depression rate (%); for inhibition at 100000 µg/mL / Depression rate (%): 48/80 compound-induced histamine release; for Histamine Releasing rate (%): 48/80 compound, control 90.5, blank 9.0
Procedure: This is a comparative testing of drug depressing effect on the amount of leaching histamines when is treated with 48/80 (Sigma, St. MO, USA) compound.
(1). Preparation of leaching cell solution from mouse body.
A mouse is killed and bloodletting. Then 10 ml of Locke's solution containing 0.1% bovine serum protein is injected into its abdominal cavity. After abdominal cavity being light massaged, the cavity is cut and the Locke's solution is removed. Cavity is washed with another 5 ml of Locke's solution, and this washed solution is added to the late one. This combined solution is centrifuged at 600 rpm for 5 minutes. The sediments are washed with 5 ml of cool Locke's solution. Adding 3 ml of cold Locke's solution to the washed sediments, then a leached cell solution of abdominal cavity is obtained. The composition of Locke's solution is: NaCL […], KCL 0.2%, CaCL2 0.15%, glucose 1.0%, in w/v, and the rest distillated water.
(2). Drug depressing effect on the amount of leaching histamines when treated with 48/80 compound.
Each testing compound listed in the table 1 is dissolved in a Ringer's solution containing 1% NaHCO3, and then diluted with Locke's solution to the indicated concentration. 1.0 ml of each of those solutions in last term is mixed with 0.3 ml of mouse's leaching cell solution and 0.5 ml of Locke's solution. This mixture is cultivated at 37° C. for 5 minutes. Then adding 0.2 ml of Locke's solution of 48/80 compound (1 mg/100 ml) and cultivated at 37° C. for 10 minutes. Then the reaction is stopped by cooling, and centrifuged at 2,500 rpm for 10 minutes. 1.7 ml of decanted solution and 0.3 ml of sediments are obtained. 0.1 ml of water and 0.2 ml of 100% trichloroacetic acid are added to the decanted solution. 1.5 ml of Locke's solution and 0.2 ml of 100% trichloroacetic acid are added to the sediments washed solution. They are cultivated at room temperature for 30 minutes. After cultivation, the mixtures are centrifuged at 3,000 rpm for 15 minutes, respectively. 0.35 ml of each of the former two solutions is sampled. In each sample, 1.65 ml of water, 0.4 ml of 1N NaOH and 0.1 ml of 0.5% OPT (o-phthalic aldehyde) in methanol are added and cultivated at room temperature for 4 minutes. The reaction is stopped by adding 0.2 ml of 2M citric acid. And finally, determine the amount of released histamines in the tested solution by fluorescence method. By the analysis, results of the depression rate of histamines could be calculated.
Locke's solution is instead of each drug in control group, and instead of both drug and 48/80 compound solution in blank group. The histamine releasing rate (A) can be calculated by following equation. […] Where (Hs) is the total amount of histamine in the decanted solution, and (Hr) is the total amount of histamine in the sediment. (A)=[(Hs)/{(Hs)+(Hr)}]×100%. Then the depression rate is: =100−[(A−A in blank group)/(A−A in control group)]×100%.

| SMILES | IC50 (xanthine oxidase) | inhibition in vivo at 1 mg/ear [2] | inhibition at 100000 µg/mL [3] | Histamine Releasing rate (%) [3] | other results |
| --- | --- | --- | --- | --- | --- |
| O=C(O)CC(O)(CC(=O)O)C(=O)O [Citric acid] | 100 nM | 100% | 100% | 8.7% | pH value of saliva ([1]; testing time 0 minute): 6.8; pH value of saliva ([1]; testing time 20 minute): 6.45; pH value of saliva ([1]; testing time 60 minute): 6.26; pH value of saliva ([1]; testing time 90 minute): 6.6; pH value of saliva ([1]; testing time 120 minute): 6.8 |
| CN(C)CCOC(c1ccccc1)c1ccccc1 [Diphenhydramine hydrochloride, reference compound] |  | 20% | 32.1% | 64.7% |  |
| Nc1nc2ncc(CNc3ccc(C(=O)N[C@@H](CCC(=O)O)C(=O)O)cc3)nc2c(=O)[nH]1 [Folic acid, reference compound] | 662 nM |  |  |  |  |
| O=C(O)/C=C/C(=O)O [Fumaric acid] | 101 nM | 98% | 100% | 8.9% |  |
| CC(O)C(=O)O (stereo not drawn) [Lactic acid] |  | 97% | 100% | 8.9% |  |
| O=C(O)CC(O)C(=O)O (stereo not drawn) [Malic acid] | 112 nM | 96% | 100% | 9.0% |  |
| O=C(O)C(O)C(O)C(=O)O (stereo not drawn) [Tartaric acid] | 102 nM | 97% | 100% | 8.9% |  |
| CC1(C)[C@@H](O[C@H]2O[C@H](C(=O)[O-])[C@@H](O)[C@H](O)[C@H]2O[C@@H]2O[C@H](C(=O)[O-])[C@@H](O)[C@H](O)[C@H]2O)CC[C@]2(C)[C@H]3C(=O)C=C4[C@@H]5C[C@@](C)(C(=O)[O-])CC[C@]5(C)CC[C@@]4(C)[C@]3(C)CC[C@@H]12.[Na+].[Na+].[Na+] [Trisodium glycyrrhizinate, reference compound] |  |  |  | 65.5% | Depression rate (%) [3]: 30.9% |
| O=C1O[C@H](CO)[C@@H](O)[C@H](O)[C@H]1O [gluconolactone] |  | 97% | 100% | 8.9% |  |
| O=C(O)CO [α-hydroxy ethanoic acid] |  |  |  | 9.0% | Depression rate (%) [2]: 98%; Depression rate (%) [3]: 100% |
| CCCCCCC(O)C(=O)O (stereo not drawn) [α-hydroxy octanoic acid] |  | 94% | 100% | 9.0% |  |
